{"source": "patent US20060276436A1", "about": "“Farnesyl dibenzodiazepinone formulation” (Ecopia BioSciences, Inc., priority 2005, published 2006)", "assay": "Population pharmacokinetic analysis (NONMEM), mouse", "format": "in vivo", "settings": "30 mg/kg; for half-life: CD1, mouse, plasma, iv; for clearance / Vd: CD1, plasma, Mouse (IV); for Vd: read-out: Vss", "from_the_text": "Plasma concentrations of Compound 1 were obtained from mice, rats, and monkeys following intravenous injection or continuous infusion. Compound 1 pharmacokinetic parameters in mice, rats, and monkeys were estimated using population pharmacokinetic analysis, a function of the software program NONMEM™ (version 5). Typical population pharmacokinetic parameters for Compound 1 in humans were extrapolated from allometric equations that were derived from pharmacokinetic parameters estimated in the three animal species. […] A two-compartment model with a first-order elimination from the central compartment adequately described Compound 1 plasma concentration-time profiles following intravenous bolus injection (30 mg/kg) in mice and rats, 7-day continuous infusion in rats (50 to 170 mg/kg/day), and 14-day continuous infusion in monkeys (5 to 30 mg/kg/day).", "note": "Read-outs that look alike come from different tables or passages of the source."}
{"smiles": "CC(C)=CCC/C(C)=C/CC/C(C)=C/CN1C(=O)c2cccc(O)c2Nc2c(O)cc(O)cc21", "note": "[Compound 1, 10-farnesyl-4,6,8-trihydroxy-dibenzodiazepin-11-one]", "values": [{"measurement": "half-life", "setting": "population PK, read-out: t1/2, α (converted)", "result": 0.078, "unit": "h"}, {"measurement": "half-life", "setting": "population PK, read-out: t1/2, β (converted)", "result": 2.49, "unit": "h"}, {"measurement": "clearance", "setting": "WT 0.022 Kg", "result": 0.533, "unit": "mL/min"}, {"measurement": "Vd", "setting": "WT 0.022 Kg", "result": 0.009, "unit": "L"}, {"measurement": "clearance", "setting": "population PK", "result": 24.8, "unit": "mL/min/kg"}, {"measurement": "Vd", "setting": "population PK", "result": 0.401, "unit": "L/kg"}]}
